# Data published in patent publication US20140179664A1, “Heterocyclyl Pyrimidine Analogues As JAK Inhibitors” (Cellzome Limited, priority 2011, published 2014).
# Experiments:
# TYK2 = molecular target: T1, TYK2 (Homo sapiens, UniProt P29597); experiment: Kinobeads assay, TYK2; format: binding; settings: mixed Molt4/Ramos lysate, read-out: Inhibition values (IC50) TYK2
# T1 construct: endogenous in cells; host or cells: Molt4 (ATCC CRL-1582) and Ramos (ATCC CRL-1596), mixed lysate 1:2
# Summary of the method: (§1)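 Mixed Molt4/Ramos lysate (1:2, 10 mg/mL protein) was incubated 3 h in the cold with the immobilized aminopyrido-pyrimidine affinity matrix and compound, 9-step 1:3 dilutions. Bead-bound kinases were eluted and quantified by antibody dot blot with infrared detection. IC50s are from dose-response curves.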
# JAK3 = molecular target: T2, JAK3 (Homo sapiens, UniProt P52333); experiment: Kinobeads assay, JAK3; format: binding; settings: mixed Molt4/Ramos lysate, read-out: Inhibition values (IC50) JAK3
# T2 construct: endogenous in cells; host or cells: Molt4 (ATCC CRL-1582) and Ramos (ATCC CRL-1596), mixed lysate 1:2
# T2 sequence (P52333 1-1124): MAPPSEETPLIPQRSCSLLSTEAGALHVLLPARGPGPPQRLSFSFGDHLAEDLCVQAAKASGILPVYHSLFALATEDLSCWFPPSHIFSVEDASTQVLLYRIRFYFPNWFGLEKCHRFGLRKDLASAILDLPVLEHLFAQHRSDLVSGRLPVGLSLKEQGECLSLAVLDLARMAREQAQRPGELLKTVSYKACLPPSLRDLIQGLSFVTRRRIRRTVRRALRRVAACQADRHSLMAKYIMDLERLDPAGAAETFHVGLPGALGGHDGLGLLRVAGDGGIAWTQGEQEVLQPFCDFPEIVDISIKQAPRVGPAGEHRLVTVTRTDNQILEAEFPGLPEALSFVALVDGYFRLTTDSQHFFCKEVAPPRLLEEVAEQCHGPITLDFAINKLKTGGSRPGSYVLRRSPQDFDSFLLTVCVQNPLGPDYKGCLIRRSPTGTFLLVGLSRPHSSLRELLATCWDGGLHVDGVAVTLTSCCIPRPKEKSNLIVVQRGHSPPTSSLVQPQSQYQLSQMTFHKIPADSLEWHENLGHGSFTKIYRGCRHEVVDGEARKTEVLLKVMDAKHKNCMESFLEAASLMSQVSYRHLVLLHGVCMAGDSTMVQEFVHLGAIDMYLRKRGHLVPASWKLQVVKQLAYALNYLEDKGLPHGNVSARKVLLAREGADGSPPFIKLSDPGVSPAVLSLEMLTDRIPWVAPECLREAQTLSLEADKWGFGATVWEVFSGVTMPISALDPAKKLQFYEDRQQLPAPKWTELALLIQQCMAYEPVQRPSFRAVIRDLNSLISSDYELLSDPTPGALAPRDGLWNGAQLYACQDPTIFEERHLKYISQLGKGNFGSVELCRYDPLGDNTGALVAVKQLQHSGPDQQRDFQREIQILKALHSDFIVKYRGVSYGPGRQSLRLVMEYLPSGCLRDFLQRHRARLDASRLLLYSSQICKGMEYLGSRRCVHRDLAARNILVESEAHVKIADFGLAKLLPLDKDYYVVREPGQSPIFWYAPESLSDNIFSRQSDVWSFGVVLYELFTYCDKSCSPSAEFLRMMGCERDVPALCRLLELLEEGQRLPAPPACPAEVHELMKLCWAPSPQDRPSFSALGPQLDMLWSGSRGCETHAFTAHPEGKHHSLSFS
# Summary of the method: as §1
# T1 sequence (P29597 whole entry): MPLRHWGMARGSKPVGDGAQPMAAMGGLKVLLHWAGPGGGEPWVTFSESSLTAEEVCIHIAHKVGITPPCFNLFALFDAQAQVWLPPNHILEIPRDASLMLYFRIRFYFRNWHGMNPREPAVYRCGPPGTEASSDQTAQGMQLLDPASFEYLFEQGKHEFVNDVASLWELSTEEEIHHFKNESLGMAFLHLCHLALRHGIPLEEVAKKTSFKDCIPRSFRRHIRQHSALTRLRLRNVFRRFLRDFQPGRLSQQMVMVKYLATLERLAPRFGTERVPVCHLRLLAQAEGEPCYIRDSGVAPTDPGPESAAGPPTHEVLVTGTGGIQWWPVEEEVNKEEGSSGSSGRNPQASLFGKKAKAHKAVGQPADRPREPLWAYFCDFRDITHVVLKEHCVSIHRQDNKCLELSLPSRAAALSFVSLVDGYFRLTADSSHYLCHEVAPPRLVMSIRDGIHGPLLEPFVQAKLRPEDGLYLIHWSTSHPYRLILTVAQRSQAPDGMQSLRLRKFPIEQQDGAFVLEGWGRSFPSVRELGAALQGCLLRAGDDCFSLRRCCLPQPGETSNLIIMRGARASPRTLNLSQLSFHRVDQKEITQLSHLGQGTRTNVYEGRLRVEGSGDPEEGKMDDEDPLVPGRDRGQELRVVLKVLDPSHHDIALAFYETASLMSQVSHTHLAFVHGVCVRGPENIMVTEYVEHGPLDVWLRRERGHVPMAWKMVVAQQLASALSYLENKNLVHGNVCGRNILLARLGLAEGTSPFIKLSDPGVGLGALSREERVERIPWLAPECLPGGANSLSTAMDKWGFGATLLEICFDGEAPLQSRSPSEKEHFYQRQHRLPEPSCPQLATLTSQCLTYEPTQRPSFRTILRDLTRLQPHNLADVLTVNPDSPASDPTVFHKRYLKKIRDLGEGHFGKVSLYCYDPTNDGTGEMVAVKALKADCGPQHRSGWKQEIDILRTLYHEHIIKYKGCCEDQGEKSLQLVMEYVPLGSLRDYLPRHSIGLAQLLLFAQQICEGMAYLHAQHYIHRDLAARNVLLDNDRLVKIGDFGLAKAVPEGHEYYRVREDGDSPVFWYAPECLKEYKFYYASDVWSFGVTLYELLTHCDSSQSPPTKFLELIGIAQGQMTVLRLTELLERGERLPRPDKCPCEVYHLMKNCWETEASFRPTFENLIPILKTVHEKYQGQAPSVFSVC
Structure (SMILES),IC50 (TYK2),IC50 (JAK3)
OCCn1cc(Nc2ncc(Cl)c(N[C@H](CO)c3cccc(F)c3)n2)cn1 [Compound 86],0.1 to 1 µM,< 0.1 µM
Cn1cc(Nc2ncc(Cl)c(N[C@H](CO)c3cccnc3)n2)cn1 [Compound 91],0.1 to 1 µM,< 0.1 µM
Cn1cc(Nc2ncc(Cl)c(N[C@H](CO)c3cccc(F)c3)n2)cn1 [Compound 85],0.1 to 1 µM,< 0.1 µM
OC[C@@H](Nc1nc(Nc2cn[nH]c2)ncc1Cl)c1cccc(F)c1 [Compound 88],0.1 to 1 µM,< 0.1 µM
CN(C)CCCNC(=O)Cn1cc(Nc2ncc(Cl)c(N[C@H](CO)c3ccccc3)n2)cn1 [Compound 90],0.1 to 1 µM,< 0.1 µM
OCCn1cc(Nc2ncc(Cl)c(N[C@H](CO)c3cccnc3)n2)cn1 [Compound 92],0.1 to 1 µM,< 0.1 µM
CN(C)CCNC(=O)Cn1cc(Nc2ncc(Cl)c(N[C@H](CO)c3ccccc3)n2)cn1 [Compound 89],0.1 to 1 µM,< 0.1 µM
OCCn1cc(Nc2ncc(Cl)c(NC(CO)c3cccc(Br)c3)n2)cn1 (centres unmarked) [Compound 93],0.1 to 1 µM,0.1 to 1 µM
Cn1cc(Nc2ncc(F)c(N[C@H](CO)c3ccccc3)n2)cn1 [Compound 3],1 to 10 µM,0.1 to 1 µM
NC(=O)Cn1cc(Nc2ncc(Cl)c(N[C@H](CO)c3cccc(F)c3)n2)cn1 [Compound 87],0.1 to 1 µM,< 0.1 µM
